Reference: PubChem BioAssay AID743396 (Broad Institute, 2014)
The source made the active and inactive calls.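 Rule for the calls: active = fitted curve reaches a 40% rise in fluorescent cells at or below the top valid dose; inactive = opposite-direction effect, or the rest.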

Test: autofluorescent compounds in non-GFP fibroblasts, dose response, artefact control for X-chromosome reactivation project, imaging, mTEFS fibroblasts, cherry-pick (AID 743396);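 note: raw share of Hoechst-counted cells scored GFP positive without control normalization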
Conditions: mTEFS fibroblasts autofluorescence, GFP-channel imaging, 3 days, at 19.5 µM (top of the series)

Q: With `COc1ccccc1NC(=O)N[C@H]1C=C[C@@H](CC(=O)N[C@@H](C)c2ccccc2)O[C@@H]1CO` as the compound, how does the % fluorescent cells increase (cells pretreated with 5-aza-dC) read?
A: 0.342% (inactive)

Q: With `COC(=O)c1cc(C(=O)N2CCN(c3ccccc3OC)CC2)cc([N+](=O)[O-])c1` as the compound, how does the % fluorescent cells increase (cells pretreated with 5-aza-dC) read?
A: 0% (inactive)

Q: Which % fluorescent cells increase (cells pretreated with 5-aza-dC) does the source give for `CCOC(=O)N1CCN(C(=O)Cn2ccc3c(OC)cccc3c2=O)CC1` here?
A: 0.012% (inactive)

Q: For `CC(C)C(NC(=O)c1ccc(F)cc1)C(=O)NCC1CCCO1` (stereo not drawn), which % fluorescent cells increase (cells pretreated with 5-aza-dC) is on record?
A: 0.01% (inactive)

Q: For `CCOc1ccc(NC(=S)NC(C)c2cccs2)cc1` (stereo not drawn), which % fluorescent cells increase (cells pretreated with 5-aza-dC) is on record?
A: 0% (inactive)

Q: For `Cc1ccc(/C=C/C(=O)N2CCN(S(=O)(=O)/C=C/c3ccccc3)CC2)o1`, which % fluorescent cells increase (cells pretreated with 5-aza-dC) is on record?
A: 0.017% (inactive)

Q: Which % fluorescent cells increase (cells pretreated with 5-aza-dC) does the source give for `Nc1c(C(=O)O)cnn1-c1ccc([N+](=O)[O-])cc1` here?
A: 0.002% (inactive)

Q: Which % fluorescent cells increase (cells pretreated with 5-aza-dC) does the source give for `COc1ccc(C(=O)Nc2ccc3oc(-c4cccc(F)c4)nc3c2)cc1OC` here?
A: -0.003% (inactive)

Q: Which % fluorescent cells increase (cells pretreated with 5-aza-dC) does the source give for `COc1ccc(CN(C)C[C@H]2OCCCC[C@@H](C)Oc3ccc(NC(=O)Nc4ccc(F)cc4)cc3C(=O)N([C@@H](C)CO)C[C@H]2C)cc1` here?
A: 0% (inactive)

Q: Which % fluorescent cells increase (cells pretreated with 5-aza-dC) does the source give for `Cc1ccc(-c2[nH]c(=S)[nH]c(=O)c2C#N)cc1` here?
A: 0.007% (inactive)

Q: With `COC(=O)c1cnn(-c2ccccc2)c1N` as the compound, how does the % fluorescent cells increase (cells pretreated with 5-aza-dC) read?
A: 0.008% (inactive)

Q: Which % fluorescent cells increase (cells pretreated with 5-aza-dC) does the source give for `CCOC(=O)Cn1c(=NC(=O)c2ccc([N+](=O)[O-])s2)sc2ccccc21` here?
A: 12% (inactive)

Q: With `C=CCn1c(O)c(C(C)=NCc2ccc3c(c2)OCO3)c(=O)[nH]c1=O` as the compound, how does the % fluorescent cells increase read?
A: 0.135% (inactive)

Q: Which % fluorescent cells increase (cells pretreated with 5-aza-dC) does the source give for `N#CC(C#N)=C1C=CC=CN1/C(=C\c1ccco1)C(=O)c1ccc(Br)cc1` here?
A: 0% (inactive)

Q: For `CC(Sc1nnc(Cc2ccccc2)o1)C(=O)Nc1ccccc1[N+](=O)[O-]` (stereo not drawn), which % fluorescent cells increase (cells pretreated with 5-aza-dC) is on record?
A: -0.011% (inactive)

Q: With `C/C(=N\NC(=O)c1ccccc1Cl)c1ccccn1` as the compound, how does the % fluorescent cells increase (cells pretreated with 5-aza-dC) read?
A: 0% (inactive)

Q: Which % fluorescent cells increase (cells pretreated with 5-aza-dC) does the source give for `CCOC(=O)/C(C#N)=C/C=C1/C=CC=CN1C` here?
A: 0.015% (inactive)

Q: With `Cc1ccc(Cn2cc(/C=N/Nc3ccc([N+](=O)[O-])cn3)c3ccccc32)cc1` as the compound, how does the % fluorescent cells increase (cells pretreated with 5-aza-dC) read?
A: 0.941% (inactive)

Q: Which % fluorescent cells increase (cells pretreated with 5-aza-dC) does the source give for `C(CCCN1CCCCC1)CCN1CCCCC1` here?
A: 0.016% (inactive)

Q: For `COc1ccc2c3c(n(C)c2c1)[C@@H](CO)N(Cc1ccccc1OC)CC31CCN(C)CC1`, which % fluorescent cells increase (cells pretreated with 5-aza-dC) is on record?
A: -0.158% (inactive)

Q: With `Cn1c(=O)[nH]c(=O)c2c1nc1n2CCCN1Cc1ccccc1` as the compound, how does the % fluorescent cells increase (cells pretreated with 5-aza-dC) read?
A: -0.011% (inactive)

Q: Which % fluorescent cells increase (cells pretreated with 5-aza-dC) does the source give for `CC1CCN(C(=O)Cn2nnc(-c3ccccc3)n2)CC1` here?
A: 0.009% (inactive)

Q: With `Cc1nnc(SCc2cc(=O)oc3ccc4ccccc4c23)n1Cc1ccccc1` as the compound, how does the % fluorescent cells increase (cells pretreated with 5-aza-dC) read?
A: 0% (inactive)

Q: For `CCN(CC)S(=O)(=O)c1ccc(Cl)c(NC(=O)COC(=O)c2c(C)noc2C)c1`, which % fluorescent cells increase (cells pretreated with 5-aza-dC) is on record?
A: 0.009% (inactive)

Q: With `O=C(NC1=C(NC2CCS(=O)(=O)C2)C(=O)c2ccccc2C1=O)c1ccccc1` (stereo not drawn) as the compound, how does the % fluorescent cells increase (cells pretreated with 5-aza-dC) read?
A: 0% (inactive)

Q: With `Cc1ccc(S(=O)(=O)Nc2ccc3c(c2)C(=O)N([C@@H](C)CO)C[C@@H](C)[C@@H](CN(C)Cc2ccc(C(=O)Nc4ccccc4N)cc2)O3)cc1` as the compound, how does the % fluorescent cells increase (cells pretreated with 5-aza-dC) read?
A: 0% (inactive)

Q: For `Cc1cccc(-c2ccc([C@@H]3[C@@H](CO)N4CCCCN(S(=O)(=O)c5ccccc5F)C[C@H]34)cc2)c1`, which % fluorescent cells increase (cells pretreated with 5-aza-dC) is on record?
A: 8.13% (inactive)

Q: With `CC(=O)C1=NN(c2ccc(Cl)cc2)C(c2ccc3c(c2)OCO3)N(C(C)=O)N1C` (stereo not drawn) as the compound, how does the % fluorescent cells increase (cells pretreated with 5-aza-dC) read?
A: -0.011% (inactive)

Q: Which % fluorescent cells increase (cells pretreated with 5-aza-dC) does the source give for `Cc1ccc(-c2nc(CS(=O)CC(=O)NCCCN3CC(C)CC(C)C3)c(C)o2)cc1` (stereo not drawn) here?
A: 0.023% (inactive)

Q: With `CN(C)c1ccc(NC2=C(Cl)C(=O)c3ccccc3C2=O)cc1` as the compound, how does the % fluorescent cells increase (cells pretreated with 5-aza-dC) read?
A: -0.006% (inactive)

Q: Which % fluorescent cells increase (cells pretreated with 5-aza-dC) does the source give for `COc1ccc(N=Nc2ccc(O)c(P(=O)(c3ccccc3)c3ccccc3)c2)cc1` here?
A: 0% (inactive)

Q: For `C[C@@H]1CN([C@@H](C)CO)S(=O)(=O)c2ccc(C#CC3CC3)cc2O[C@H]1CN(C)Cc1ccc(F)cc1`, which % fluorescent cells increase (cells pretreated with 5-aza-dC) is on record?
A: 0.107% (inactive)

Q: Which % fluorescent cells increase (cells pretreated with 5-aza-dC) does the source give for `CN(C)CCCNC(=O)/C(=C\c1ccc(-c2ccc(Br)cc2)o1)NC(=O)c1ccccc1` here?
A: -0.006% (inactive)
